# Measured values published in publication PMC5513037, “Examining the influence of specificity ligands and ATP-competitive ligands on the overall effectiveness of bivalent kinase inhibitors” (Proteome Science, 2017).
# pIC50: −log10 of the molar value.
# Assays:
# Assay in all cases: KAM-matrix competition in K562 lysate;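 for 0.001 uM KAM: median log10 fold change of treatment over DMSO control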;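 for 0.01 uM KAM: median log10 fold change of treatment over DMSO control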;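 for 0.1 uM KAM: median log10 fold change of treatment over DMSO control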;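 for 1 uM KAM: median log10 fold change of treatment over DMSO control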;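 for 10 uM KAM: median log10 fold change of treatment over DMSO control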
# Format in all cases: binding
# [1] = target: T1, MAP3K6 (Homo sapiens, UniProt O95382)
# T1 construct: endogenous in cells; host or cells: K562
# T1 sequence (O95382 1-1288): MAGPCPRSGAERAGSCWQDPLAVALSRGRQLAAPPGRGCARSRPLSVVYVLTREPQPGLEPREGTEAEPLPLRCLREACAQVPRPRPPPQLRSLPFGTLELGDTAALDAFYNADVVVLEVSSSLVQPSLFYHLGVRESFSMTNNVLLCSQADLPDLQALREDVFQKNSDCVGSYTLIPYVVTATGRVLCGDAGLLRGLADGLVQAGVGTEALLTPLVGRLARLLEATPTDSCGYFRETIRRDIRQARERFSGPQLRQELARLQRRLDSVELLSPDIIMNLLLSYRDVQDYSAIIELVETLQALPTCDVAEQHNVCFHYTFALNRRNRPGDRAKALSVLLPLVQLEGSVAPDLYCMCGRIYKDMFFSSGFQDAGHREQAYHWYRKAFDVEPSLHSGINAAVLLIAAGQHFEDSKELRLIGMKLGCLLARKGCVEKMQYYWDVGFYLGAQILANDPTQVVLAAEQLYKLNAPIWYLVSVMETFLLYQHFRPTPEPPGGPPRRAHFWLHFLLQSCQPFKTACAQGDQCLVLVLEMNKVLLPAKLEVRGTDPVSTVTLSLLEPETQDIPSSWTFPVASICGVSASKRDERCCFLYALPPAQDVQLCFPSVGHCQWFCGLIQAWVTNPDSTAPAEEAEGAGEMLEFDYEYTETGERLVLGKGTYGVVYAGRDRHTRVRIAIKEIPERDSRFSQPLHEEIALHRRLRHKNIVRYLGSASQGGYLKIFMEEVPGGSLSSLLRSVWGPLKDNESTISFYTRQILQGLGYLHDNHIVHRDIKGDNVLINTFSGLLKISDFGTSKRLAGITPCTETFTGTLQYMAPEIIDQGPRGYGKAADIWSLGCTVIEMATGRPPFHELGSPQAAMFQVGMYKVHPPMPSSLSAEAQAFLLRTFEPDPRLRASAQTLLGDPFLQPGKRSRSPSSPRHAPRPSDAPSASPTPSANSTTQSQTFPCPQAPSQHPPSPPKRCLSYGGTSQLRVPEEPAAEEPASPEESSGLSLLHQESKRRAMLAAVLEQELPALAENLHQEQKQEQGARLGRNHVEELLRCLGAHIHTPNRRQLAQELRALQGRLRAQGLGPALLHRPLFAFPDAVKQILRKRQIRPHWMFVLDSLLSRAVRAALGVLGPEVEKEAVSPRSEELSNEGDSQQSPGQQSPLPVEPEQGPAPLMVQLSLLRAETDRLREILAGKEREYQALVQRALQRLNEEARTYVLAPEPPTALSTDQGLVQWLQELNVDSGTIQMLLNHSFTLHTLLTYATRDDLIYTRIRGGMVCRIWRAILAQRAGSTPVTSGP
# Description: (§1) Supplement 12953_2017_125_MOESM1_ESM.zip/MS_Supp Info.xlsx, sheet "KAM" | column: 10 uM KAM; 1 uM KAM; 0.1 uM KAM; 0.01 uM KAM; 0.001 uM KAM; RB50
# [2] = target: T2, BMP2K (Homo sapiens, UniProt Q9NSY1)
# T2 construct: endogenous in cells; host or cells: K562
# Description: as §1
# [3] = target: T3, LATS1 (Homo sapiens, UniProt O95835)
# T3 construct: endogenous in cells; host or cells: K562
# T3 sequence (O95835 1-1130): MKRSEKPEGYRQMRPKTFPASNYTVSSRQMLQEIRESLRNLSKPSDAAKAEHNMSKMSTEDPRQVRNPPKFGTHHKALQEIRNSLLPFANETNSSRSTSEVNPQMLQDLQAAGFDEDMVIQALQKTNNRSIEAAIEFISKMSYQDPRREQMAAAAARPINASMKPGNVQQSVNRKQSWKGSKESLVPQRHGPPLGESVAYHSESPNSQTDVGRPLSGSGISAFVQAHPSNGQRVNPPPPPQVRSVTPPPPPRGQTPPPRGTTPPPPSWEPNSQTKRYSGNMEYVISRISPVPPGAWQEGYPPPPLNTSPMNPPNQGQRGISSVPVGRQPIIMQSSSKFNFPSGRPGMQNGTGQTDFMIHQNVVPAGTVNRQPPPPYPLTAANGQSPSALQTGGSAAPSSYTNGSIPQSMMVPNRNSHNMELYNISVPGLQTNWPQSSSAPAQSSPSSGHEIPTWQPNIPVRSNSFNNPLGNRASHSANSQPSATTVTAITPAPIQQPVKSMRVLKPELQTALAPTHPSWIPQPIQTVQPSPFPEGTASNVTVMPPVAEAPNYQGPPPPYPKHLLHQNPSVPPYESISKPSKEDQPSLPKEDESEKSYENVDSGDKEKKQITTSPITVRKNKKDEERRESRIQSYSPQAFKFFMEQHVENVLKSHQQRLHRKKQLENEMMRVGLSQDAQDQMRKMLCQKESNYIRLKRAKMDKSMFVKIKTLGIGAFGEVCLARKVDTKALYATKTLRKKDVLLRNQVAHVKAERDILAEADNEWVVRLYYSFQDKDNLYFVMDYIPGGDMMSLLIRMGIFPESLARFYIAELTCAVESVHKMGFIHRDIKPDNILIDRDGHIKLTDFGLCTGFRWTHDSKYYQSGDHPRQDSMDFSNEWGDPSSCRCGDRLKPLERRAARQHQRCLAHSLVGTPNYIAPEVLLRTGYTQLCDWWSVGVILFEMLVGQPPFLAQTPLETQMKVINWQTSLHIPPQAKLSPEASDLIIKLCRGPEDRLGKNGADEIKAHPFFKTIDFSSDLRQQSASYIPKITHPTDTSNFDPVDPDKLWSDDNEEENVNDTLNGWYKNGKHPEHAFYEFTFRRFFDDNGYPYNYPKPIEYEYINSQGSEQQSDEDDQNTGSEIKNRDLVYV
# Description: as §1
# [4] = target: T4, PKN3 (Homo sapiens, UniProt Q6P5Z2);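 for 0.001 uM KAM: median log10 fold change of treatment over DMSO control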;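 for 0.01 uM KAM: median log10 fold change of treatment over DMSO control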;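 for 0.1 uM KAM: median log10 fold change of treatment over DMSO control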;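 for 1 uM KAM: median log10 fold change of treatment over DMSO control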;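 for 10 uM KAM: median log10 fold change of treatment over DMSO control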
# T4 construct: endogenous in cells; host or cells: K562
# Description: as §1
# [5] = read-out: RB50 (the source's name)
# T2 sequence (Q9NSY1 whole entry): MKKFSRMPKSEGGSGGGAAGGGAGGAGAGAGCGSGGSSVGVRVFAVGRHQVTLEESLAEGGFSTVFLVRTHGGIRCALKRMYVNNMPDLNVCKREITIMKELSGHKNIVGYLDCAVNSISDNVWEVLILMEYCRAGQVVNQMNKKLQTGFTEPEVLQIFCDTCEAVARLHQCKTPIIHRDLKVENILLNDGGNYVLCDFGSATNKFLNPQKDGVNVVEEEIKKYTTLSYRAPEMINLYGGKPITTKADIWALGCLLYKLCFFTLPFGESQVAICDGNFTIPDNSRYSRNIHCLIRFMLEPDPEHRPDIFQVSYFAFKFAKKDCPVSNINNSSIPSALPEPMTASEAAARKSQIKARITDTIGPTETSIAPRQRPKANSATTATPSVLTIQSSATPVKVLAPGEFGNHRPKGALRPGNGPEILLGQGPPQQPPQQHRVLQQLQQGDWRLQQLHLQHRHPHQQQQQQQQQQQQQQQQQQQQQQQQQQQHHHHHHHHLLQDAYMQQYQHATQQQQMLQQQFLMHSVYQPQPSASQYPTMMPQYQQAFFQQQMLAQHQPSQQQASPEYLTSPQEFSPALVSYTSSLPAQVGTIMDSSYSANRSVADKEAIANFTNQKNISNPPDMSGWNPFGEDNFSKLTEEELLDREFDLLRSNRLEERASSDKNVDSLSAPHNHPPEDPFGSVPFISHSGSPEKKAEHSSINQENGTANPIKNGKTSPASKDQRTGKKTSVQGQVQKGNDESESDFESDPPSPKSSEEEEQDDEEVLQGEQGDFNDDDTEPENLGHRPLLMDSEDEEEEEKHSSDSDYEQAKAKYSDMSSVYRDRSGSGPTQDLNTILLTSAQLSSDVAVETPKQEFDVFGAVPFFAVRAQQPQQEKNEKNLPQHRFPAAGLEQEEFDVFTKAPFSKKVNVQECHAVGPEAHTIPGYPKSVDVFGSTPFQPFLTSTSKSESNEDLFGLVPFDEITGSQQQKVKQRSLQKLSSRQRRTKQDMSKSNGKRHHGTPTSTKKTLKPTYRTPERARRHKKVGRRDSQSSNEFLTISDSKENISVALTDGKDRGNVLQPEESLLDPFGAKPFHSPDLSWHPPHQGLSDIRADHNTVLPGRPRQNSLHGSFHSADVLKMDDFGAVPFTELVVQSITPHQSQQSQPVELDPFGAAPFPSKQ
# T4 sequence (Q6P5Z2 whole entry): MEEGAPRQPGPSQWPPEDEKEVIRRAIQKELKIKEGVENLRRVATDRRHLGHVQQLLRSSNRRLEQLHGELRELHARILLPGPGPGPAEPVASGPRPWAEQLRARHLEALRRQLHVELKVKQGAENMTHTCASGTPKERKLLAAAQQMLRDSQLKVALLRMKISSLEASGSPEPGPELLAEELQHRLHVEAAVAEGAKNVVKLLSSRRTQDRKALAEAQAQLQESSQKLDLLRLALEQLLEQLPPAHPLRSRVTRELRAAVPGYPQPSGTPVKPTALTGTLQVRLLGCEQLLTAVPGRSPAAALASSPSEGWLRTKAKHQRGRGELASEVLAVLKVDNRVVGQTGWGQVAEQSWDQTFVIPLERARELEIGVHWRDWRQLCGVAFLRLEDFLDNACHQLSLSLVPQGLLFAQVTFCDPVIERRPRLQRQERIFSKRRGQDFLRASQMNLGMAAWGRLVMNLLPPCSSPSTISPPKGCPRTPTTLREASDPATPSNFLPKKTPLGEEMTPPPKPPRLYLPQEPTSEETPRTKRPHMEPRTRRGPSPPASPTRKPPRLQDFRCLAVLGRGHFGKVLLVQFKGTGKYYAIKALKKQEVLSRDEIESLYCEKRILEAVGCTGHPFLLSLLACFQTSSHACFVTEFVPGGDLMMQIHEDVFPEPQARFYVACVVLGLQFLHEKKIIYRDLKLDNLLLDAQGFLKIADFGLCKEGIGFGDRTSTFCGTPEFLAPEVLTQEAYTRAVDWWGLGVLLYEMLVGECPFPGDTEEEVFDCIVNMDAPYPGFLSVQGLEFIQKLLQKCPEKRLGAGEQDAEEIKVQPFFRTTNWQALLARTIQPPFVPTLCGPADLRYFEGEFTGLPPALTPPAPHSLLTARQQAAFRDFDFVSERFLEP
smiles,measurement,setting,value
N#CCc1ccc(Nc2nc(NCCCN)cc(Nc3cc(C4CC4)[nH]n3)n2)cc1 [KAM],median Log10 fold change,[1]; 0.001 uM KAM,-0.04109
same,median Log10 fold change,[1]; 0.01 uM KAM,-0.01116
same,median Log10 fold change,[1]; 0.1 uM KAM,-0.09429
same,median Log10 fold change,[1]; 1 uM KAM,-0.1699
same,median Log10 fold change,[1]; 10 uM KAM,-0.3363
same,pIC50,[1]; [5],5.27
same,median Log10 fold change,[2]; 0.001 uM KAM,-0.005905
same,median Log10 fold change,[2]; 0.01 uM KAM,-0.3094
same,median Log10 fold change,[2]; 0.1 uM KAM,-0.4691
same,median Log10 fold change,[2]; 1 uM KAM,-0.5686
same,median Log10 fold change,[2]; 10 uM KAM,-0.6945
same,pIC50,[2]; [5],7.80
same,median Log10 fold change,[3]; 0.001 uM KAM,-0.01464
same,median Log10 fold change,[3]; 0.01 uM KAM,-0.02487
same,median Log10 fold change,[3]; 0.1 uM KAM,-0.2673
same,median Log10 fold change,[3]; 1 uM KAM,-0.4734
same,median Log10 fold change,[3]; 10 uM KAM,-0.4675
same,pIC50,[3]; [5],6.69
same,pIC50,"[4]; KAM 0.001-10 uM, read-out: RB50 (the source's name)",< 5.00
same,0.001 uM KAM,[4]; relative to 0 uM KAM = 0,0.01928
same,0.01 uM KAM,[4]; relative to 0 uM KAM = 0,0.02728
same,0.1 uM KAM,[4]; relative to 0 uM KAM = 0,-0.02092
same,1 uM KAM,[4]; relative to 0 uM KAM = 0,-0.1078
same,10 uM KAM,[4]; relative to 0 uM KAM = 0,-0.2223
